The nature of series [1]: Visual release rate test of Bitrex in water. It counts as physicochemical. The note with it: after 15 minutes; 0.4 mg agitated in 10 ml of water. Here is the method:
0.4 mg of sample was agitated in 10 ml of water and observed over 8 hours.

The nature of series [2]: UV/Vis release rate measurement of Bitrex in water. The note with it: 100 mg in 40 ml water. It counts as physicochemical. Here is the method: 2 ml of the mixture was removed at each time interval for analysis.

With `CC[N+](CC)(CC(=O)Nc1c(C)cccc1C)Cc1ccccc1` [uncoated Bitrex, denatonium benzoate], in series [1], the “visual release: state of sample in water” value was “fully dissolved”. Also, the “% release of Bitrex relative to the total content” value in series [2] (5 minutes) is on record as 99.6%; in series [2] (15 minutes), 99.8%.

Values taken from US20140249031A1, “MICELLE-COATED CRYSTALLINE PARTICLES” (SYNGENTA LIMITED, priority 2011, published 2014).
